For assay [1], the system named is 293S cells transfected with EP2. The assay can be described thus: Kidney regeneration assay: induction of BMP-7 expression (Northern blot) in EP2 293S cells. The assay is classed as cell-based, human. The following applies: 10^-6M, RNA at 8, 16 and 24 hours, time dependent. Here is the method: (§1) The role of a prostaglandin agonist in kidney regeneration is investigated by the ability of Prostaglandin E2 (PGE2) or a prostaglandin agonist to induce the expression of Bone Morphogenetic Protein 7 (BMP-7) in wild type 293S cells and in 293S cells transfected with EP2.
(§2) Methods: 293S and EP2 293S cells are grown in Dulbecco's Modified Egale medium (DMEM, Gibco, BRL; Gaithersburg, Md.). One day prior to treatment with PGE2 or a prostaglandin agonist, cells are plated at a density of 1.5×10^6 cells/10 cm dish. Generally about 16 to 24 hours later the cell monolayer is washed once with OptiMEM (Gibco, BRL; Gaithersburg, Md.) followed by the addition of 10 ml OptiMEM/dish in the presence and absense of vehicle (DMSO), PGE2 (10^−6M) or a prostaglandin agonist (10^−6M). Cells are harvested and RNA is extracted at 8, 16 and 24 hours. Northern blot analysis of total RNA ([…]) is carried out by probing the blots with ^32P-labeled BMP-7 probe. The blots are normalized for RNA loading by hybridization with ^32P-labeled 18s ribosomal RNA probe. […] Given the known role of BMP-7 in kidney regeneration and the ability of an prostaglandin agonist to induce BMP-7 expression in 293S kidney cells in a time and receptor specific manner indicates a role for prostaglandin agonist in kidney regeneration.

Assay [2] deals with ovariectomized (OVX) rat model. To be noted: model for postmenopausal osteoporosis, Ke et al., Bone 23:249-255, 1998; cited from earlier work.
Assay [3] deals with wild type 293S cells. As to the kind of experiment: Kidney regeneration assay: induction of BMP-7 expression (Northern blot) in wild type 293S cells. The assay is classed as cell-based, human. The following applies: parental (wild type) 293S cell line; 10^-6M; 8, 16 and 24 hours. The protocol:
as §1, §2

On to `CCCCC[C@H](O)/C=C/[C@H]1[C@H](O)CC(=O)[C@@H]1C/C=C\CCCC(=O)O` [PGE2, prostaglandin E2], for which the “expression of Bone Morphogenetic Protein 7 (BMP-7)” value is recorded as “induce the expression of BMP-7” in assay [1] and “generally not observed” in assay [3]. The “restoration of lost bone” value in assay [2] is “can restore lost bone”.

(Values after patent publication US7192979B2, “EP4 receptor selective agonist in the treatment of osteoporosis” (Pfizer Inc., priority 2000, dated 2007).)
